This is an account of results in patent US20070167499A1, “Biaryl linked hydroxamates: preparation and pharmaceutical applications” (A*BIO Pte Ltd., priority 2003, published 2007).

As usually defined, the IC50 is the midpoint of a concentration-inhibition curve. By GI50 is commonly meant the concentration at which growth is held to half of that of the control.

One assay concerns the target T1, HDAC8 enzyme (GST-HDAC8) (Homo sapiens, UniProt Q9BY41).
T1 construct: Amplification of human HDAC1 and HDAC8 coding region from this cDNA library; made in house; host or cells: SF9 insect cells (baculovirus, pFASTBAC vector)
T1 sequence (Q9BY41 1-377): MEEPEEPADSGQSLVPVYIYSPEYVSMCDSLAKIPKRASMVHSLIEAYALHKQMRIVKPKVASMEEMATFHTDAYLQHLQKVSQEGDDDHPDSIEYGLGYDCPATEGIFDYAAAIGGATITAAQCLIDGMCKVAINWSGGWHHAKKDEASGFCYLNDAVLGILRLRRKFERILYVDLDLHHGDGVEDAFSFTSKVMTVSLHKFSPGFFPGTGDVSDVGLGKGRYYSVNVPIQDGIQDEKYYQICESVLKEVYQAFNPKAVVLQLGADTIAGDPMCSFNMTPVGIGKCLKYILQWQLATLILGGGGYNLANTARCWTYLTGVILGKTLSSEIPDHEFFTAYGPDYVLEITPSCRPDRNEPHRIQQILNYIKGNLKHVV
The experiment in a line: In vitro HDAC assay for determination of IC50 values (BIOMOL fluorescent-based HDAC activity assay), HDAC8. The format is biochemical. How it is done:
Recombinant GST-HDAC1 and GST-HDAC-8 Protein expression and purification
Human cDNA library was prepared using cultured SW620 cells. Amplification of human HDAC1 and HDAC8 coding region from this cDNA library was cloned separately into the baculovirus expression pDEST20 vector and pFASTBAC vector respectively (GATEWAY Cloning Technology, Invitrogen Pte Ltd). […] Recombinant baculovirus was prepared using the Bac-To-Bac method following the manufacturer's instruction (Invitrogen Pte Ltd).
Expression of GST-HDAC1 or HTGST-HDAC8 was done by infecting SF9 cells (Invitrogen Pte Ltd) with pDEST20-HDAC1 or pFASTBAC-GST-HDAC8 baculovirus at MOI=1 for 48 h. Soluble cell lysate was incubated with pre-equilibrated Glutathione Sepharose 4B beads (Amersham) at 4° C. for 2 h. The beads were washed with PBS buffer for 3 times. The GST-HDAC1 protein or GST-HDAC8 protein was eluted by elution buffer containing 50 mM Tris, pH8.0, 150 mM NaCl, 1% Triton X-100 and 10 mM or 20 mM reduced Glutathione. The purified GST-HDAC1 protein or purified GST-HDAC8 protein was dialyzed with HDAC storage buffer containing 10 mM Tris, pH7.5, 100 mM NaCl and 3 mM MgCl2. 20% Glycerol was added to purified GST-HDAC1 protein or purified GST-HDAC8 before storage at −80° C.
In vitro HDAC assay for determination of IC50 values
The assay has been carried out in 96 well format and the BIOMOL fluorescent-based HDAC activity assay has been applied. […] Flur de lys Developer was added and the reaction was incubated for 10 min. Briefly, deacetylation of the substrate sensitizes it to the developer, which then generates a fluorophore The fluorophore is excited with 360 nm light and the emitted light (460 nm) is detected on a fluorometric plate reader (Tecan Ultra Microplate detection system, Tecan Group Ltd.).
The analytical software, Prism 3.0® (GraphPad Software Inc) has been used to generate IC50 from a series of data.

For the next assay, the system named is Colo205. The assay can be described thus: Cell-based proliferation assay for determination of GI50 values, colon cancer cell line. Particulars: Homo sapiens, COLO 205; 96 h treatment, cyquant cell proliferation assay; read-out: Cellular activities GI50, Colo205. How it is done:
(§1) Cell-based Proliferation assay for determination of GI50 values
(§2) Three different cancer cell lines were obtained from ATCC: Human colon cancer cell line (Colo205), human breast cancer cell lines (MDA-MB435), and human lung cancer cell line (NCl-H522). Colo205 cells and NCl-H522 were cultivated in RPMI 1640 containing 2 mM
(§3) L-Glutamine, 5% FBS, 1.0 mM Na Pyruvate. MDA-MB435 cells were cultivated in DMEM containing 2 mM L-Glutamine, 5% FBS. Colo205 cells were seeded in 96-wells plate at 2000 and 5000 cells per well respectively. MDA-MB435 and NCl-H522 cells were seeded in 96-wells plate at 6000 cells per well. The plates were incubated at 37° C., 5% CO2, for 24 h. Cells were treated with compounds at various concentrations for 96 h. Cell growth was then monitored using cyquant cell proliferation assay (Invitrogen Pte Ltd). Dose response curves were plotted to determine GI50 values for the compounds using XL-fit (ID Business Solution, Emeryville, Calif.).

Assay [1] relates to acetylated H4 in Colo205 cells. The experiment in a line: Histone H4 acetylation assay (western-blot). Set-up: key: “Active” means accumulation of acetylated histone was observed when compared with control (without compound). The format is cell-based, human. Particulars: Colo205 cells, 0.1, 1, 5 and 10 μM, after 24 h. On the procedure:
Histone H3, H4 and H2A acetylation assay
A hallmark of histone deacetylase (HDAC) inhibition is the increase in the acetylation level of histones. Histone acetylation, including H3, H4 and H2A can be detected by immuno-blotting (western-blot). Colo205 cells, approximately 1.5×10^6 cells/10 cm dish, were seeded in the previously described medium, cultivated for 24 h and subsequently treated with HDAC inhibitory agents at 0.1, 1, 5 and 10 μM final concentration. After 24 h, cells were harvested and lysed according to the instruction from Sigma Mammalian Cell Lysis Kit. The protein concentration was quantified using BCA method (Sigma Pte Ltd). The protein lysate was separated using 4-12% bis-tris SDS-PAGE gel (Invitrogen Pte Ltd) and was transferred onto PVDF membrane (BioRad Pte Ltd). The membrane was probed separately using primary antibody specific for acetylated H3, acetylated H4 or acetylated H2A (Upstate Pte Ltd). The detection antibody, goat anti rabbit antibody conjugated with horse radish peroxidase (HRP) was used according to the manufacturing instruction (Pierce Pte Ltd). After removing the detection antibody from the membrane, an enhanced chemiluminescent substrate for detection of HRP (Pierce Pte Ltd) was added onto the membrane. After removing the substrate, the membrane was exposed to an X-ray film (Kodak) for 1 sec-20 mins. The X-ray film was developed using the X-ray film processor. The density of each band observed on the developed film could be analysed using UVP Bioimaging software (UVP, Inc, Upland, Calif.). The values were then normalized against the density of actin in the corresponding samples to obtain the expression of the protein.

The subject of the next assay is MDA-MB435. The experiment in a line: Cell-based proliferation assay for determination of GI50 values, breast cancer cell line. Particulars: Homo sapiens, MDA-MB-435; 96 h treatment, cyquant cell proliferation assay; read-out: Cellular activities GI50, MDA-MB435. How it is done:
as §1, §2, §3

[2] abbreviates: 500 nM HDAC8 enzyme, 200 μM Flur de lys p53 peptide substrate, room temperature 2 h, read-out: HDAC8 Enzyme Activity, IC50.

Like-named read-outs stand apart in the source and are kept apart here.

`O=C(Cc1ccc(-c2csc(NC(=O)Cc3ccccc3)n2)s1)NO` [Example 1, N-Hydroxy-2-[5-(2-phenylacetylamino-thiazol-4-yl)-thiophen-2-yl]-acetamide]: 41 nM corresponded to half-maximal inhibition at HDAC8 enzyme (GST-HDAC8) (IC50). Also, in the assay with Colo205, the GI50 is 12100 nM.

As to `Nc1nc(-c2ccc(/C=C/C(=O)NO)cc2)cs1` [Example 23, 3-[4-(2-Amino-thiazol-4-yl)-phenyl]-N-hydroxy-acrylamide], at HDAC8 enzyme (GST-HDAC8) (setting [2]), the IC50 was found to be 100 nM. Also, the GI50 in the assay on Colo205 came to 7720 nM; in the assay on MDA-MB435, 4460 nM. Moreover, in assay [1], the “Histone 4 acetylation” value is “Active”.

As for `O=C(NO)c1ccc(-c2ccc(CNCCc3ccccc3)cc2)s1` [Example 26, 5-[4-(Phenethylamino-methyl)-phenyl]-thiophene-2-carboxylic acid hydroxyamide], on HDAC8 enzyme (GST-HDAC8) (setting [2]), the IC50 is 16 nM. Moreover, the results for the GI50 in the assay on Colo205 and with MDA-MB435 were 1860 nM and 2660 nM, respectively. Also, the “Histone 4 acetylation” value in assay [1] was “Active”.

Take `O=C(NO)c1ccc(-c2ccc(CNCCc3ccccn3)cc2)s1` [Example 27]: the IC50 at HDAC8 enzyme (GST-HDAC8) (setting [2]) is 120 nM. The GI50 stood at 2390 nM with Colo205 and 1490 nM in the assay on MDA-MB435. For the same molecule, the “Histone 4 acetylation” value in assay [1] is “Active”.
